# Results taken from patent US20220133846A1, “NOVEL ANTIMICROBIAL COMPOUND AND USES THEREOF” (priority 2019, published 2022).
# “And” between values parts separate entries of the source, which are not always exact repeats. Identical values can stand only once. “Also recorded” adds a separate entry of the source. Like-named read-outs stand apart in the source and are kept apart here.
# Assays:
# [1] = IV 30 mg/kg; for AUC % Back Extrapolation to C0 / AUC % Extrapolation to infinity / tlast: blood; for Mean Concentration in blood: male CD1 mice
# [2] = tested on: S. aureus; experiment: Thermal and chemical (pH) short-term stability, antibacterial activity remaining; type: physicochemical; settings: 4 to 60° C. for 18 hours, and 37° C. at pH 3.0-9.0
# Protocol: Samples were clarified by centrifugation (16,000×g for 5 min) and soluble fractions were tested for antibacterial activity (against S. aureus) and examined by analytical HPLC.
# [3] = Stability in human serum or plasma (MIC after incubation); type: in vitro ADME
# Protocol: Stability studies were also performed in the presence of plasma or serum, or in whole blood.
# [4] = tested on: Acinetobacter baumannii
# [5] = tested on: MDR S. aureus (CH-11); experiment: Frequency of resistance (FoR) in vitro; type: cell-based
# [6] = tested on: S. aureus (ATCC #29213); type: cell-based
# [7] = tested on: S. aureus NRS 384 (USA300-0114); experiment: Murine neutropenic thigh infection model; type: in vivo, mice
# [8] = Stability in whole blood and plasma (zone of inhibition, diffusion method); type: in vitro ADME, mouse; settings: for Whole blood ZOI: 400 μg/mL added to mouse whole blood; for Plasma fraction ZOI: plasma from treated whole blood
# Protocol: The antimicrobial activity remaining in blood was measured by the diffusion method and expressed as the zone of inhibition (ZOI), proportional to the amount of activity remaining in blood (Table 11). Zone of inhibition (ZOI) is a zone of bacteria free agar plate after depositing 2 μL of a tested sample. In parallel, CMB001 treated blood was centrifuged to remove blood cells and the level of CMB001 was tested in the supernatant (plasma).
# [9] = tested on: Enterococcus faecalis strain NBRC 100480
# [10] = tested on: J774A mouse BALB/c cells; experiment: Toxicity to mammalian cells (cell viability); settings: up to 1,500 μg/mL, 24 hours
# [11] = tested on: A. baumannii (CH-46); experiment: Frequency of resistance (FoR) in vitro; type: cell-based
# [12] = tested on: Staphylococcus haemolyticus strain JCM 2416
# [13] = 1 mg/mL solution, pH 7.0, 10 minutes, centrifugation
# [14] = tested on: S. aureus or MRSA; experiment: Bacteriolytic activity (time-kill, OD600); type: cell-based; settings: twice the MIC, mid-exponential growth, over 20 hours
# [15] = in vivo; settings: male, CD1, mouse, iv, 30 mg/kg; for clearance / MRT / Vd / half-life: blood; for clearance: CL/CL_F; for clearance / MRT / Vd: IV 30 mg/kg; for Vd: Vdss; for half-life: t1/2, IV 30 mg/kg
# [16] = tested on: Staphylococcus genus clinical strain CH-16 (16S ID n/a); experiment: microbe, parasite or virus in culture; type: cell-based; settings: clinical strain CH-16, drug resistance Y
# [17] = tested on: Staphylococcus aureus strain NBRC 100910; experiment: MIC against clinical isolates (Christiana Hospital); type: cell-based
# [18] = tested on: Staphylococcus haemolyticus strain JCM 2416; experiment: microbe, parasite or virus in culture; settings: JCM2416
# [19] = individual animals 1-3, 30 mg/kg
smiles,measurement,setting,value
"C=C(NC(=O)[C@@H](NC(=O)[C@H](Cc1c[nH]cn1)NC(=O)[C@@H]1CS[C@@H](C)[C@H]2NC(=O)[C@H](C)NC(=O)[C@H](NC(=O)[C@H](CCC(N)=O)NC(=O)[C@@H](NC(=O)[C@H](Cc3ccccc3)NC(=O)[C@@H]3CS[C@@H](C)[C@@H](NC(=O)[C@@H](NC(=O)[C@@H]4CS[C@@H](C)[C@@H](NC(=O)[C@@H]5CSC[C@@H](NC(=O)[C@H](CCCCN)NC(=O)[C@@H](N)Cc6c[nH]c7ccccc67)C(=O)N[C@@H](CCC(N)=O)C(=O)NC(=C)C(=O)N[C@@H](Cc6ccccc6)C(=O)N5)C(=O)N5CCC[C@H]5C(=O)NCC(=O)N4)C(C)C)C(=O)NCC(=O)N[C@@H](C(C)C)C(=O)N[C@@H](CC(C)C)C(=O)N[C@@H](CCC(N)=O)C(=O)N/C(=C\C)C(=O)N3)[C@@H](C)CC)[C@H](C)SC[C@H](NC2=O)C(=O)N[C@@H](CC(N)=O)C(=O)N1)[C@@H](C)CC)C(=O)N[C@@H](CCCCN)C(=O)O [CMB001, WKAQX1FAX3PGAVX3GVLQX2AFIQX3AX3ANAHIX1K (SEQ ID NO: 1)]",Time at detectable levels in blood,[1]; LLOQ 500 ng/mL,at least 60 minutes
same,AUC % Back Extrapolation to C0,[1]; Mean/Median,16%
same,AUC % Extrapolation to infinity,[1]; Mean/Median,29%
same,tlast,[1]; Mean/Median,1.00 h
same,tlast,[1]; individual animals 1-3,1.00 h
same,AUC % Back Extrapolation to C0,[1]; [19],23% and 12% and 13%
same,AUC % Extrapolation to infinity,[1]; [19],26% and 22% and 41%
same,Mean Concentration in blood,"[1]; 2.00 hours, LLOQ 500 ng/mL",BLQ*
same,Mean Concentration in blood,"[1]; 4.00 hours, LLOQ 500 ng/mL",BLQ
same,Mean Concentration in blood,"[1]; 8.00 hours, LLOQ 500 ng/mL",BLQ
same,Mean Concentration in blood,"[1]; 24.00 hours, LLOQ 500 ng/mL",BLQ
same,Antibacterial activity (MIC) and chemical integrity after incubation,[2],retained its full antibacterial activity (MIC) and chemical integrity
same,Antibacterial activity after incubation in human serum or plasma,[3]; 8-hour incubation at 37° C.,retained full antibacterial activity
same,Antibacterial activity after incubation in human serum or plasma,[3]; 24-hour incubation,somewhat less active
same,MIC range,[4],3.4 to 27.7 mg/L
same,Frequency of resistance (FoR),[5]; 2X MIC,3.5 × 10^−9
same,Frequency of resistance (FoR),[5]; 3X MIC,1.8 × 10^−9
same,Frequency of resistance (FoR),[5]; 4X MIC,2.9 × 10^−8
same,Frequency of resistance (FoR),[5]; 5X MIC,5.3 × 10^−10
same,Frequency of resistance (FoR),[5]; 10X MIC,<3.2 × 10^−10
same,Frequency of resistance (FoR),[6]; 2X MIC,1.3 × 10^−8
same,Frequency of resistance (FoR),[6]; 3X MIC,2.2 × 10^−9
same,Frequency of resistance (FoR),[6]; 4X MIC,2.6 × 10^−9
same,Frequency of resistance (FoR),[6]; 5X MIC,3.7 × 10^−10
same,Frequency of resistance (FoR),[6]; 10X MIC,<3.7 × 10^−10
same,Bacterial burden compared to vehicle control,[7]; 0.5 to 10 mg/kg IV,dose dependent reduction of bacterial burden; also recorded: dose-dependent reduction of S. aureus in the thigh
same,Thigh burden compared to vehicle-treated group,"[7]; 5 to 30 mg/kg IV at 1, 8 and 15 hours post-infection",Significant reduction of thigh burden
same,Survival to end of study,"[7]; 5 to 30 mg/kg IV, 25 h post-infection",Most CMB001-treated animals survived until the end of the study
same,Thigh burden relative to pre-treatment levels,"[7]; all doses, 5 to 30 mg/kg IV",reduced below pre-treatment levels
same,Whole blood ZOI,[8]; 10 minutes,10 mm
same,Whole blood ZOI,[8]; 60 minutes,9 mm
same,Whole blood ZOI,[8]; 120 minutes,8 mm
same,Whole blood ZOI,[8]; 180 minutes,8 mm
same,Whole blood ZOI,[8]; 240 minutes,8 mm
same,Adsorption onto blood cells,"[8]; mouse blood, 400 μg/mL",not adsorbed onto blood cells
same,Activity in whole blood,"[8]; mouse blood, 400 μg/mL, 0-4 hours",retains full activity in whole blood
same,Plasma fraction ZOI,[8]; 10 minutes,11 mm
same,Plasma fraction ZOI,[8]; 60 minutes,9 mm
same,Plasma fraction ZOI,[8]; 120 minutes,8 mm
same,Plasma fraction ZOI,[8]; 180 minutes,8 mm
same,Plasma fraction ZOI,[8]; 240 minutes,7 mm
same,Spiked plasma control ZOI,"[8]; plasma spiked with CMB001, 10 minutes",9 mm
same,Spiked plasma control ZOI,"[8]; plasma spiked with CMB001, 60 minutes",11 mm
same,Spiked plasma control ZOI,"[8]; plasma spiked with CMB001, 120 minutes",11 mm
same,Spiked plasma control ZOI,"[8]; plasma spiked with CMB001, 180 minutes",11 mm
same,Spiked plasma control ZOI,"[8]; plasma spiked with CMB001, 240 minutes",10 mm
same,MIC90,[9],12.5 mg/L
same,MIC range,[9],6.2 to 12.5 mg/L
same,Cell viability,[10],did not reduce cell viability
same,Frequency of resistance (FoR),[11]; 2X MIC,1.1 × 10^−7
same,Frequency of resistance (FoR),[11]; 3X MIC,2.9 × 10^−9
same,Frequency of resistance (FoR),[11]; 5X MIC,<1 × 10^−11
same,Frequency of resistance (FoR),[11]; 10X MIC,<1 × 10^−11
same,MIC,[12],6.25 mg/L
same,Solubility relative to initial concentration,[13],> 96%
same,"Bacteriolytic activity, change of OD600",[14],marked decrease of OD600
same,clearance,[15]; Mean/Median,10.2 L/h/kg
same,clearance,[15]; individual animals 1-2,9.96 L/h/kg
same,MRT,[15]; Mean/Median,40.2 min
same,MRT,[15]; individual animals 1-2,42.6 min
same,Vd,[15]; Mean/Median,6.8 L/kg
same,Vd,[15]; individual animals 1-2,7 L/kg
same,half-life,[15]; Mean/Median,32.4 ± 9 min
same,half-life,[15]; individual animals 1-2,38.4 min
same,level at 0.08 h,[15]; whole blood,4.77 µg/mL
same,level at 0.25 h,[15]; whole blood,2.45 µg/mL
same,level at 0.5 h,[15]; whole blood,1.28 µg/mL
same,level at 1 h,[15]; whole blood,0.916 µg/mL
same,level at time molar at 0.08 h,[15]; whole blood,1.42 µM
same,level at time molar at 0.25 h,[15]; whole blood,0.733 µM
same,level at time molar at 0.5 h,[15]; whole blood,0.383 µM
same,level at time molar at 1 h,[15]; whole blood,0.274 µM
COc1cccc(OC)c1C(=O)N[C@@H]1C(=O)N2[C@@H]1SC(C)(C)[C@@H]2C(=O)O [Methicillin],Frequency of resistance (FoR),[5]; 2X MIC,resistant
same,Frequency of resistance (FoR),[5]; 3X MIC,resistant
same,Frequency of resistance (FoR),[5]; 4X MIC,resistant
same,Frequency of resistance (FoR),[5]; 5X MIC,resistant
same,Frequency of resistance (FoR),[5]; 10X MIC,resistant
same,Frequency of resistance (FoR),[6]; 2X MIC,<3.72 × 10^−10
same,Frequency of resistance (FoR),[6]; 3X MIC,<3.72 × 10^−10
same,Frequency of resistance (FoR),[6]; 4X MIC,<3.72 × 10^−10
same,Frequency of resistance (FoR),[6]; 5X MIC,<3.72 × 10^−10
same,Frequency of resistance (FoR),[6]; 10X MIC,<3.72 × 10^−10
same,MIC,[16],64 mg/L
same,MIC,"[17]; NBRC100910, clinical strain CH-01, drug resistance N",1 mg/L
same,MIC,"[17]; NBRC100910, clinical strain CH-02, drug resistance N",1 mg/L
same,MIC,"[17]; NBRC100910, clinical strain CH-03, drug resistance N",1 mg/L
same,MIC,"[17]; NBRC100910, clinical strain CH-04, drug resistance N",2 mg/L
same,MIC,"[17]; NBRC100910, clinical strain CH-05, drug resistance N",1 mg/L
same,MIC,"[17]; NBRC100910, clinical strain CH-06, drug resistance N",1 mg/L
same,MIC,"[17]; NBRC100910, clinical strain CH-07, drug resistance N",1 mg/L
same,MIC,"[17]; NBRC100910, clinical strain CH-08, drug resistance N",1 mg/L
same,MIC,"[17]; NBRC100910, clinical strain CH-09, drug resistance N",8 mg/L
same,MIC,"[17]; NBRC100910, clinical strain CH-10, drug resistance N",1 mg/L
same,MIC,"[17]; NBRC100910, clinical strain CH-11, drug resistance Y",32 mg/L
same,MIC,"[17]; NBRC100910, clinical strain CH-12, drug resistance Y",16 mg/L
same,MIC,"[17]; NBRC100910, clinical strain CH-13, drug resistance Y",> 64 mg/L
same,MIC,"[17]; NBRC100910, clinical strain CH-14, drug resistance Y",> 64 mg/L
same,MIC,"[17]; NBRC100910, clinical strain CH-15, drug resistance Y",> 64 mg/L
same,MIC,"[17]; NBRC100910, clinical strain CH-17, drug resistance Y",16 mg/L
same,MIC,"[17]; NBRC100910, clinical strain CH-20, drug resistance Y",4 mg/L
same,MIC,[18],8 mg/L
